Assays:
Test in all cases: microscale thermophoresis (MST)
Assay type in all cases: binding
alpha-enolase (ENO1) = target: T1, alpha-enolase (ENO1) (Homo sapiens, UniProt P06733)
T1 construct: His-tagged ENO1 protein

pyruvate kinase M (PKM) = target: T2, pyruvate kinase M (PKM) (Homo sapiens, UniProt P14618)
T2 construct: His-tagged PKM protein

ENO1 (S254A) = target: T3, ENO1 (S254A) (Homo sapiens, UniProt P06733, S254A)
T3 construct: His-tagged ENO1 (S254A) protein
T3 sequence (P06733 2-434 S254A): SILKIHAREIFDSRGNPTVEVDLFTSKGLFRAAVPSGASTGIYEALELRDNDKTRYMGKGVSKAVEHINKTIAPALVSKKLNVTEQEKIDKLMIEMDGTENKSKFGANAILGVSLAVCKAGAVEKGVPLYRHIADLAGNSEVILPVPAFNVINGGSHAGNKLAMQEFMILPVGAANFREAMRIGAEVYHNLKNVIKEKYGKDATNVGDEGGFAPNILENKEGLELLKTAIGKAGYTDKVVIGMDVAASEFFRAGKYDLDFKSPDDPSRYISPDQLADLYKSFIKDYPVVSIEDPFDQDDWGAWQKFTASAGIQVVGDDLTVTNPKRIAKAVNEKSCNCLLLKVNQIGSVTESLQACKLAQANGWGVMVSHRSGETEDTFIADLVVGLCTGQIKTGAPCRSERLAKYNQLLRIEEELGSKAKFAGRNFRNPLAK

T2 sequence (P14618 2-531): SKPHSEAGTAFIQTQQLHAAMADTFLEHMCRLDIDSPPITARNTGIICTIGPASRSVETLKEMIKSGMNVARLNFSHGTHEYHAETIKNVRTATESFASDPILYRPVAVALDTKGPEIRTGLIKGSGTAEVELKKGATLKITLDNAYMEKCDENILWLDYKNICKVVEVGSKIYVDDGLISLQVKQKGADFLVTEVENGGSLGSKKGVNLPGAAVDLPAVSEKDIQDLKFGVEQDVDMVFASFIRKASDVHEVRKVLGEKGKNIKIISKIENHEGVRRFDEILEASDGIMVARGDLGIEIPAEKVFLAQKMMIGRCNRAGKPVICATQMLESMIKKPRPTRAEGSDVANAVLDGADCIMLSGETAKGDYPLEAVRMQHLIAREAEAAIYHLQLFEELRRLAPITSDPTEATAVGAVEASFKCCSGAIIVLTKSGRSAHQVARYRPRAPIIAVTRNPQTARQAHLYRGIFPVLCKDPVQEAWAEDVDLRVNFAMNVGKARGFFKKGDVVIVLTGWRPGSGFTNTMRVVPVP
T1 sequence (P06733 2-434): as the sequence (P06733 2-434 S254A) above, with A253S counted along it

With `CCOC(=O)c1nc(-c2ccc(C(F)(F)F)cc2)oc1-c1cccc(C)c1` [KB2764] the Kd (alpha-enolase (ENO1)) was 0.0401 µM, the Kd (pyruvate kinase M (PKM)) was 9.32 µM and the Kd (ENO1 (S254A)) was 240 µM.
